One test deals with P493-6 (myc "on") cells. Briefly: Cell Proliferation Assay. Type of test: cell-based. To be noted: P493-6, 72 h, read-out: Cell prolif P493 72 h IC50, P493-6 cells, 72 h. In outline:
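P493-6 cells with myc on, 10,000 per well in RPMI/10% FBS, exposed to serially diluted compound (0.5% DMSO final) for 72 h at 37 °C, 5% CO2. Antiproliferative effect read by Cell Titer Glo luminescence or Viacount FACS viability count.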
For `CNCc1cccc(CC(=O)Nc2nnc(CCCCc3nnc(NC(=O)Cc4ccccc4)s3)s2)c1` [Compound 393], the IC50 is 900 nM.

For `CN(C)Cc1cccc(CC(=O)Nc2nnc(CCCCc3nnc(NC(=O)Cc4ccccc4)s3)s2)c1` [Compound 394], the IC50 was 1200 nM.

As for `CN(Cc1cccc(CC(=O)Nc2nnc(CCCCc3ccc(NC(=O)Cc4ccccc4)nn3)s2)c1)C(=O)OC(C)(C)C` [Compound 396], the IC50 was found to be 5 nM.

With `CC(C)(C)OC(=O)Nc1cccc(CC(=O)Nc2nnc(CCCCc3ccc(NC(=O)Cc4ccccc4)nn3)s2)c1` [Compound 399], the IC50 stood at 26 nM.

For the compound `O=C(Cc1ccccc1)Nc1ccc(CCCCc2nnc(NC(=O)NC3CCCC3)s2)nn1` [Compound 403], the IC50 came out at 120 nM.

With `O=C(Cc1ccccc1)Nc1nnc(CCCCc2ccc(NC(=O)NCc3ccccc3)nn2)s1` [Compound 405], the IC50 came to 670 nM.

For the compound `NCc1ccc(CC(=O)Nc2nnc(CCCCc3ccc(NC(=O)Cc4ccccc4)nn3)s2)cc1` [Compound 407], the IC50 was 44 nM.

Take `Nc1cccc(CC(=O)Nc2nnc(CCCCc3ccc(NC(=O)Cc4ccccc4)nn3)s2)c1` [Compound 409]: the IC50 was 37 nM.

Turning to `Nc1ccc(CCCCc2nnc(NC(=O)C(O)c3cccc(Cl)c3)s2)nn1` (stereo not shown) [Compound 411], the IC50 came to 740 nM.

For the compound `O=C(Cc1ccccc1)Nc1ccc(CCCCc2nnc(NC(=O)C(O)c3cccc(Br)c3)s2)nn1` (stereo not shown) [Compound 415], the IC50 was found to be 18 nM.

On to `Cc1cccc(CNC(=O)Nc2nnc(CCCCc3nnc(NC(=O)Cc4ccccc4)s3)s2)c1` [Compound 417], for which the IC50 turned out to be 320 nM.

With `CCNC(=O)Nc1ccc(CCCCc2nnc(NC(=O)Cc3cccc(CNC(=O)OC(C)(C)C)c3)s2)nn1` [Compound 420], the IC50 is 70 nM.

As to `CC(C)(C)OC(=O)NCc1cccc(CC(=O)Nc2nnc(CCCCc3ccc(NC(=O)C(O)c4cccc(Cl)c4)nn3)s2)c1` (stereo not shown) [Compound 422], the IC50 was 6 nM.

On to `CC(=O)Nc1ccc(CC(=O)Nc2nnc(CCCCc3ccc(NC(=O)Cc4ccccc4)nn3)s2)cc1` [Compound 426], for which the IC50 was 33 nM.

Regarding `O=C(Cc1ccccc1)Nc1ccc(CCCCc2nnc(NC(=O)Cc3cccc(OCCO)c3)s2)nn1` [Compound 427], the IC50 was determined as 27 nM.

Regarding `COCCOc1cccc(CC(=O)Nc2nnc(CCCCc3ccc(NC(=O)Cc4ccccc4)nn3)s2)c1` [Compound 428], the IC50 amounted to 19 nM.

In the case of `O=C(Cc1ccccc1)Nc1ccc(CCCCc2nnc(NC(=O)Cc3cccc(CNC(=O)c4ccccc4)c3)s2)nn1` [Compound 432], the IC50 was 4 nM.

Take `O=C(Cc1ccccc1)NCc1cccc(CC(=O)Nc2nnc(CCCCc3ccc(NC(=O)Cc4ccccc4)nn3)s2)c1` [Compound 435]: the IC50 was found to be 6 nM.

Turning to `NCc1cccc(CC(=O)Nc2nnc(CCCCc3nnc(NC(=O)Cc4ccccc4)s3)s2)c1` [Compound 437], the IC50 worked out at 72 nM.

In the case of `CC(C)NC(=O)Nc1nnc(CCCCc2nnc(NC(=O)Cc3ccccc3)s2)s1` [Compound 438], the IC50 stood at 880 nM.

For the compound `O=C(CN1CCOCC1)NCc1ccc(CC(=O)Nc2nnc(CCCCc3ccc(NC(=O)Cc4ccccc4)nn3)s2)cc1` [Compound 442], the IC50 came to 25 nM.

Regarding `O=C(Nc1ccc(CCCCc2nnc(NC(=O)C(O)c3cccc(Cl)c3)s2)nn1)C(O)c1cccc(Cl)c1` (stereo not shown) [Compound 446], the IC50 is 150 nM.

Turning to `O=C(Cc1cccc(Cl)c1)Nc1ccc(CCCCc2nnc(NC(=O)C(O)c3cccc(Cl)c3)s2)nn1` (stereo not shown) [Compound 448], the IC50 worked out at 51 nM.

As for `CC(=O)NCCc1cccc(CC(=O)Nc2nnc(CCCCc3ccc(NC(=O)Cc4ccccc4)nn3)s2)c1` [Compound 454], the IC50 is 130 nM.

For `O=C(Cc1ccccc1)Nc1ccc(CCCCc2nnc(NC(=O)Cc3cccc(CNC(=O)C(F)(F)F)c3)s2)nn1` [Compound 458], the IC50 is 13 nM.

With `CC(=O)NCc1cccc(CC(=O)Nc2nnc(CCCCc3ccc(NC(C)=O)nn3)s2)c1` [Compound 459], the IC50 turned out to be 570 nM.

In the case of `CC(=O)Nc1ccc(CCCCc2nnc(NC(=O)Cc3cccc(CNC(=O)CC(C)C)c3)s2)nn1` [Compound 461], the IC50 was found to be 62 nM.

As for `CC(C)(C)OC(=O)NCc1ccccc1CC(=O)Nc1nnc(CCCCc2ccc(NC(=O)Cc3ccccc3)nn2)s1` [Compound 464], the IC50 is 59 nM.

As to `COc1cccc(CC(=O)Nc2ccc(CCCCc3nnc(NC(=O)C(O)c4cccc(Cl)c4)s3)nn2)c1` (stereo not shown) [Compound 467], the IC50 was found to be 47 nM.

The test is the same for the next values; noted with them: P493-6, 72 h, read-out: Cell prolif P493 72 h IC50, P493 cells, 72 h.
Consider `O=C(CCN1CCOCC1)OC(C(=O)Nc1nnc(CCCCc2nnc(NC(=O)C(OC(=O)CCN3CCOCC3)c3cccc(Cl)c3)s2)s1)c1cccc(Cl)c1` (stereo not shown) [Compound 332], for which the IC50 came to 87 nM.

Take `O=C(Cc1ccccc1)Nc1nnc(CCCCc2nnc(NC(=O)Cc3ccccc3CO)s2)s1` [Compound 333]: the IC50 was 1600 nM.

As for `O=C(Cc1ccccc1)Nc1ccc(CCCCc2nnc(NC(=O)C(OC(=O)CCN3CCOCC3)c3ccccc3)s2)nn1` (stereo not shown) [Compound 334], the IC50 was found to be 30 nM.

As for `O=C(Cc1ccccc1)Nc1ccc(CCCCc2nnc(NC(=O)Cc3cccc(Cl)c3)s2)nn1` [Compound 335], the IC50 amounted to 50 nM.

With `NCc1cccc(CC(=O)Nc2nnc(CCCCc3ccc(NC(=O)Cc4ccccc4)nn3)s2)c1` [Compound 341], the half-inhibitory concentration (IC50) turned out to be 39 nM.

Turning to `Nc1nnc(CCCCc2ccc(NC(=O)Cc3ccccc3)nn2)s1` [Compound 342], the IC50 is 2700 nM.

Take `COc1ccc(Cl)c(CC(=O)Nc2nnc(CCCCc3nnc(NC(=O)Cc4ccccc4)s3)s2)c1F` [Compound 343]: the IC50 came out at 250 nM.

Turning to `COc1c(F)ccc(CC(=O)Nc2nnc(CCCCc3nnc(NC(=O)Cc4ccccc4)s3)s2)c1F` [Compound 344], the IC50 was found to be 88 nM.

As to `O=C(Cc1ccccc1)Nc1nnc(CCCCc2nnc(NC(=O)Cc3c(Cl)ccc(O)c3F)s2)s1` [Compound 345], the IC50 turned out to be 240 nM.

In the case of `O=C(Cc1ccccc1)Nc1nnc(CCCCc2nnc(NC(=O)Cc3ccc(F)c(O)c3F)s2)s1` [Compound 346], the IC50 came out at 87 nM.

For the compound `O=C(Cc1ccccc1)Nc1nnc(CCSCCc2nnc(NC(=O)Cc3cccnc3)s2)s1` [Compound 347], the IC50 is 710 nM.

For `Nc1ccc(CCCCc2nnc(NC(=O)Cc3ccccc3)s2)nn1` [Compound 348, N-(5-(4-(6-aminopyridazin-3-yl)butyl)-1,3,4-thiadiazol-2-yl)-2-phenylacetamide], the IC50 came to 1700 nM.

As for `O=C(Cc1ccccc1)Nc1ccc(CCCCc2nnc(NC(=O)[C@@H](O)c3ccccc3)s2)nn1` [Compound 350], the IC50 turned out to be 29 nM.

For the compound `O=C(Cc1ccccc1)Nc1ccc(CCCCc2nnc(NC(=O)NCc3ccccc3)s2)nn1` [Compound 352], the IC50 worked out at 130 nM.

Regarding `O=C(CCN1CCOCC1)OC(C(=O)Nc1nnc(CCCCc2nnc(NC(=O)C(O)c3cccc(Cl)c3)s2)s1)c1cccc(Cl)c1` (stereo not shown) [Compound 358], the IC50 was determined as 110 nM.

Turning to `O=C(Cc1ccccc1)Nc1nnc(CCSCCc2nnc(NC(=O)Cc3ccccn3)s2)s1` [Compound 359], the IC50 was 910 nM.

In the case of `O=C(Cc1ccncc1)Nc1nnc(CCSCCc2nnc(NC(=O)Cc3ccncc3)s2)s1` [Compound 361], the IC50 is more than 20000 nM.

In the case of `O=C(Cc1cccc(Cn2cccn2)c1)Nc1nnc(CCCCc2nnc(NC(=O)Cc3cccc(Cn4cccn4)c3)s2)s1` [Compound 362], the IC50 worked out at 54 nM.

Take `O=C(Cc1cccc(-n2ccnc2)c1)Nc1nnc(CCCCc2nnc(NC(=O)Cc3cccc(-n4ccnc4)c3)s2)s1` [Compound 363]: the 50% inhibitory concentration (IC50) is more than 20000 nM.

In the case of `CC(C)(C)OC(=O)NCc1cccc(CC(=O)Nc2ccc(CCCCc3nnc(NC(=O)Cc4ccccc4)s3)nn2)c1` [Compound 367], the IC50 worked out at 6 nM.

For the compound `CC(C)COC(=O)Nc1nnc(CCCCc2nnc(NC(=O)Cc3ccccc3)s2)s1` [Compound 370], the IC50 turned out to be 700 nM.

As for `O=C(Cc1ccccc1)Nc1nnc(CCSCc2nnc(NC(=O)Cc3cccc(Cl)c3)s2)s1` [Compound 372], the IC50 came to 150 nM.

Turning to `O=C(Cc1ccccc1)Nc1nnc(CCSCc2nnc(NC(=O)Cc3ccccn3)s2)s1` [Compound 373], the IC50 turned out to be 280 nM.

As to `O=C(Cc1ccccc1)Nc1nnc(CCCCc2nnc(NC(=O)OCc3ccccc3)s2)s1` [Compound 374], the IC50 was 470 nM.

Consider `O=C(Cc1ccccc1)Nc1nnc(CCSCc2nnc(NC(=O)C(O)c3cccc(Cl)c3)s2)s1` (stereo not shown) [Compound 376], for which the IC50 was 91 nM.

`O=C(Cc1ccccc1)Nc1nnc(CCSCc2nnc(NC(=O)[C@@H](O)c3ccccc3)s2)s1` [Compound 377]: the IC50 was found to be 100 nM.

In the case of `O=C(Cc1ccccc1)Nc1nnc(CCSCc2nnc(NC(=O)Cc3cccc(OCCN4CCOCC4)c3)s2)s1` [Compound 378], the IC50 is 90 nM.

With `COC(=O)Nc1nnc(CCCCc2nnc(NC(=O)Cc3ccccc3)s2)s1` [Compound 387], the IC50 is 2300 nM.

`CCCCOC(=O)Nc1nnc(CCCCc2nnc(NC(=O)Cc3ccccc3)s2)s1` [Compound 388]: the half-inhibitory concentration (IC50) was 750 nM.

Take `O=C(Cc1ccccc1)Nc1ccc(CCCCc2nnc(NC(=O)C(OC(=O)CCN3CCOCC3)c3cccc(Cl)c3)s2)nn1` (stereo not shown) [Compound 389]: the IC50 was 32 nM.

As for `O=C(Cc1ccccc1)Nc1nnc(CCCCc2nnc(NC(=O)Cc3cccc(OCCN4CCOCC4)c3)s2)s1` [Compound 390], the IC50 turned out to be 160 nM.

For `CN(Cc1cccc(CC(=O)Nc2nnc(CCCCc3nnc(NC(=O)Cc4ccccc4)s3)s2)c1)C(=O)OC(C)(C)C` [Compound 391], the IC50 turned out to be 27 nM.

Turning to `O=C(Cc1ccccc1)Nc1nnc(CCCCc2nnc(NC(=O)Cc3cccc(Cn4cccn4)c3)s2)s1` [Compound 392], the IC50 amounted to 72 nM.

The test is the same for the next values; noted with them: P493-6, read-out: Cell prolif P493 72 h IC50; P493 cells, 72 h.
With `O=C(Cc1ccccc1)Nc1nnc(CCCCc2nnc(NC(=O)Oc3ccccc3)s2)s1` [Compound 371], the IC50 is 5200 nM.

The test is the same for the next values; noted with them: read-out: Cell prolif P493 72 h IC50; P493-6 cells, 72 h.
Take `CCCC(=O)OC(C(=O)Nc1nnc(CCCCc2ccc(NC(=O)Cc3ccccc3)nn2)s1)c1cccc(Cl)c1` (stereo not shown) [Compound 439]: the IC50 amounted to 56 nM.

As usually defined, the IC50 is the concentration at which inhibition is half-maximal.

Source of the values: patent publication US20150004134A1, “TREATMENT OF CANCER WITH HETEROCYCLIC INHIBITORS OF GLUTAMINASE” (Calithera Biosciences, Inc., priority 2012, published 2015).
